Results on 4 compounds are retold here after patent US20240043615A1, “AMINO ACID POLYMER-PLATINUM ANTICANCER DRUG CONJUGATES” (priority 2020, published 2024).

Entries after “also recorded” stand apart in the source; their conditions may differ.

In series [1] the test system is multiple drug resistant MDA-MB-231 cells (MDA-MB-231/MDR). Briefly: Cytotoxicity in multiple drug resistant MDA-MB-231 cells. As to conditions: different concentrations of Pt, 30 min. It counts as cell-based, human. The method, then:
(§1) A2780 cisplatin-resistant cells (A2780-Cis) and multiple drug resistant MDA-MB-231 cells (MDA-MB-231/MDR) were employed as models of drug resistant cells. 5×10^3 A2780-Cis or MDA-MB-231/MDR cells/well were seeded in a 96-well plate and cultured overnight. […] The results of this study are found in FIGS. 8A and 8B.

For series [2], the system named is A2780 cisplatin-resistant cells (A2780-Cis). Briefly: Cytotoxicity in cisplatin-resistant A2780 cells. The series is classed as cell-based, human. The note with it: different concentrations of Pt, 30 min. The method, then:
as §1

Series [3] is described as follows: Spleen toxicity evaluation in mice. As to conditions: mice after treatment.
The nature of series [4]: Plasma pharmacokinetics in tumor-free mice (Pt by ICP-OES). The note with it: 4 mg (Pt)/kg Pt-equivalent dosage.
Description: The dosage was calculated based on Pt. Plasma samples were collected at different time points. Pt content was measured by ICP-OES.
The test system of series [5] is CT26 tumor. The series is described as follows: Anti-tumor efficacy, CT26 tumor-bearing mice. The series is classed as in vivo. As to conditions: i.v.
Series [6] is described as follows: Body weight change in mice. As to conditions: single 8 mg (Pt)/kg injection.
Series [7] concerns CT26 tumor. As to conditions: CT26-tumor bearing mice, i.v., same dosage of oxaliplatin and P(G-A)-Asp-Pt.
Series [8] relates to CT26 cells. The note with it: for cell viability of CT26 cells with respect to incubation time: 25 μg Pt/mL, different time points, CCK8; for cell viability of CT26 cells: varying platinum concentration, 30 min. The procedure:
5×10^3 CT26 cells/well were seeded in a 96-well plate and cultured overnight. […] Cell viability was detected by CCK8 assay. The concentration of each of the platinum derivatives was calculated based on platinum concentration.
(§2) CT26, A2780 or MDA-MB-231 cells were seeded in a 96-well plate and cultured overnight.
The concentration of each of the platinum derivatives was calculated based on platinum concentration.

Series [9] relates to MDA-MB-231 human breast cancer cells. The series is described as follows: Cytotoxicity in MDA-MB-231 cells. The series is classed as cell-based. As to conditions: varying platinum concentration, 30 min. The method, then: as §2
For series [10], the system named is CT26 cells. Briefly: LysoTracker flow cytometry (lysosomal rupture). The series is classed as cell-based, mouse. The note with it: treatment 1 h; LysoTracker deep red 100 nM 40 min.
Description: CT26 cells were seeded in a 6-well plate and cultured overnight. […] Cells were then stained with LysoTracker deep red (100 nM) for 40 min. Cells were analyzed by flow cytometry.
The next series concerns A2780 tumor. The series is described as follows: Anti-tumor efficacy, A2780 tumor-bearing mice. As to conditions: i.v. The series is classed as in vivo.
The test system of series [11] is A2780 cisplatin-resistant tumor. The note with it: i.v.; control 5% glucose.
In series [12] the test system is A2780 human ovarian cancer cells. Briefly: Cytotoxicity in A2780 cells. As to conditions: varying platinum concentration, 30 min. The series is classed as cell-based. The procedure:
as §2

For series [13], the system named is CT26 cells. The series is described as follows: Annexin-V/propidium iodide flow cytometry (apoptosis/necrosis). It counts as cell-based, mouse. As to conditions: 15 μg (Pt)/mL, different times.
Description: CT26 cells were seeded in a 6-well plate and cultured overnight. […] Apoptosis: Annexin V^+ PI^−, Necrosis: PI^+.
Series [14] deals with CT26 cells. As to conditions: short-time treatment.
The test system of series [15] is CT26 cells. As to conditions: dynasore, chlorpromazine, genistein, cytochalasin D 40 min, then 25 μg (Pt)/mL for 30 min.
Where [16] appears, read: same Pt dosage of oxaliplatin and P(G-A)-Asp-Pt, control 5% glucose.

For `N.N.[Cl][Pt][Cl]` [cisplatin], the “cell viability of MDA-MB-231/MDR cells” value in [1] is given as “little effect”. Also, the “cell viability of A2780-Cis cells” value in series [2] was “little effect”.

For `O=C1[O][Pt]2([NH][C@@H]3CCCC[C@H]3[NH]2)[O]C1=O` [oxaliplatin, reference compound], the “spleen appearance and weight” value in [3] was “dramatically shrunken with decreased weight”. Moreover, the “Pt concentration in plasma versus time (circulation time)” value in series [4] was “quickly cleared from plasma”. For the same compound, the CT26 tumor growth result in the series with CT26 tumor [5] (setting [16]) was “partially slowed CT26 and A2780 tumor growth”. Besides, the body weight decrease entry in [6] was “more than 15%”. Also, the “Pt concentration in tumors versus time” value in the series with CT26 tumor [7] is “rapidly dropped over time”. Besides, in the series with CT26 cells [8], the “cell viability of CT26 cells with respect to incubation time” value was “little effect within that time interval” and the “cell viability of CT26 cells” value is given as “little effect”. The “cell viability of MDA-MB-231 cells” value in series [9] is on record as “little effect”. The “LysoTracker signal (MFI) in CT26 cells” value in the series with CT26 cells [10] is reported as “little effect”. Further, the A2780 tumor growth result in the series with A2780 tumor (setting [16]) is “partially slowed CT26 and A2780 tumor growth”. Besides, the A2780-Cis tumor growth entry in [11] is reported as “partial anti-tumor efficacy on A2780-Cis tumors”. Further, the “cell viability of MDA-MB-231/MDR cells” value in series [1] is given as “little effect”. Further, the “cell viability of A2780 cells” value in series [12] is on record as “little effect”. The “cell viability of A2780-Cis cells” value in [2] is “little effect”. Besides, the “apoptosis (Annexin V+ PI−) of CT26 cells” value in the series with CT26 cells [13] is on record as “induced cell apoptosis gradually from 0.5 h to 18 h”.

For “Poly L-Glutamic and poly L-Aspartic acid (Glu:Asp = 7:3)-L-Aspartic-Platinum [P(G-A)-Asp-Pt]”, in the series on CT26 tumor [5] (high dose), the CT26 tumor growth entry is “completely inhibited the growth” and the “mice with complete response, CT26 tumors” value is “over 40%”. Moreover, in the series with CT26 tumor [5] (setting [16]), the CT26 tumor growth result is given as “significantly inhibited tumor growth compared to the same oxaliplatin dosage”. In addition, the “morphological changes in CT26 cells” value in the series with CT26 cells [14] is “Obvious cancer cell swelling and disrupted plasma membrane”. In addition, in the series on CT26 cells [8], the “cell viability of CT26 cells with respect to incubation time” value was “induce rapid cell death in as short as 30 min”; the “cell viability of CT26 cells” value was “able to kill these cancer cells; also recorded: best cytotoxicity to CT26 cells compared to the other platinum derivatives tested; also recorded: better efficacy that P(G-A)-Glu-Pt and P(G-A)-D-Asp-Pt”. Besides, the “IC50 in CT26 cells in different incubation times” value in the series with CT26 cells [8] (24 and 48 h, compared with oxaliplatin) is given as “lower IC50”. For the same compound, the “cell viability of MDA-MB-231 cells” value in series [9] was “able to kill these cancer cells”. Further, the “LysoTracker signal (MFI) in CT26 cells” value in the series on CT26 cells [10] was “reduced LysoTracker signal”. Also, in the series with A2780 tumor (high dose), the A2780 tumor growth entry is “completely inhibited the growth” and the “mice with complete response, A2780 tumors” value is “over 40%”. Besides, in the series on A2780 tumor (setting [16]), the A2780 tumor growth result is “significantly inhibited tumor growth compared to the same oxaliplatin dosage”. Also, the A2780-Cis tumor growth result in series [11] is “significantly prohibited A2780-Cis tumor growth”. The “cell viability of MDA-MB-231/MDR cells” value in series [1] is given as “able to kill these drug resistant cells in 30 min”. In addition, in series [12], the “cell viability of A2780 cells” value is given as “able to kill these cancer cells”. Further, the “cell viability of A2780-Cis cells” value in series [2] is “able to kill these drug resistant cells in 30 min”. Also, the “necrosis (PI+) of CT26 cells” value with CT26 cells [13] was “triggered cancer cell necrosis quickly in 30 min”. The “viability of CT26 cells pre-treated with endocytosis/micropinocytosis inhibitors” value in the series on CT26 cells [15] is reported as “partially restore cell viability”.

“Poly L-Glutamic and poly L-Aspartic acid (Glu:Asp = 7:3)-Platinum [P(G-A)-Pt]”: the “cell viability of CT26 cells” value in the series with CT26 cells [8] was “best cytotoxicity to CT26 cells compared to the other platinum derivatives tested”.
